PubChem BioAssay (NCI)
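Where inhibition never reached the appropriate level, the endpoint shown equals the highest concentration tested. Otherwise, values were interpolated linearly from a five-concentration, 48-hour dose response in 96-well plates. TGI: total growth inhibition.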 Where a SMILES comes first, the peptide text is derived from it. [ ]: non-standard residue; d: D form. The star is where a group is joined. Boc = CC(C)(C)OC(=O)*; Lac = C[CH](O)C(=O)O; OBn = c1ccc(CO*)cc1

system: COLO 205 colon; experiment: NCI-60 cell line screen, 48 h

Row | SMILES | TGI [µM]
1 | CN(C)c1ccc(C2CC(c3ccc4ccccc4c3O)=NN2)cc1 (configuration not stated) | 51.5
2 | CN1CCc2cc3c(c4c2C1C(O)c1ccccc1-4)OCO3 (configuration not stated) | > 100
3 | C1=CC2(C=CC13O[C@H](C1CCCCC1)[C@@H](C1CCCCC1)O3)O[C@H](C1CCCCC1)[C@@H](C1CCCCC1)O2 | > 50
4 | CC(OC(=O)C(Cc1ccccc1)NC(=O)C(Cc1ccccc1)NC(=O)OC(C)(C)C)C(=O)OCc1ccccc1 (stereo not drawn) (Boc-Phe-Phe-[Lac]-OBn; configuration not given here) | > 100

system: DU-145 prostate; experiment: NCI-60 cell line screen, 48 h

Row | SMILES | TGI [µM]
5 | CC1=NN(c2nc(N)nc(/C(C#N)=C/c3ccccc3O)n2)C(C)(C)C1 | 32
6 | Cc1c(-c2ccc(O)cc2)n(CCCCCCNCCOC(=O)NCCCc2ccc(N(CCCl)CCCl)cc2)c2ccc(O)cc12 | 3.97
7 | COc1ccc(NC(=S)Nc2cc(C)cc(C)n2)cc1 | > 100
8 | CN(C)c1ccc(C2CC(c3ccc4ccccc4c3O)=NN2)cc1 (configuration not stated) | > 100
9 | CN1CCc2cc3c(c4c2C1C(O)c1ccccc1-4)OCO3 (configuration not stated) | > 100
10 | C1=CC2(C=CC13O[C@H](C1CCCCC1)[C@@H](C1CCCCC1)O3)O[C@H](C1CCCCC1)[C@@H](C1CCCCC1)O2 | > 50
11 | CC(OC(=O)C(Cc1ccccc1)NC(=O)C(Cc1ccccc1)NC(=O)OC(C)(C)C)C(=O)OCc1ccccc1 (stereo not drawn) (Boc-Phe-Phe-[Lac]-OBn; configuration not given here) | > 100

system: EKVX NSCLC; experiment: NCI-60 cell line screen, 48 h

Row | SMILES | TGI [µM]
12 | CC1=NN(c2nc(N)nc(/C(C#N)=C/c3ccccc3O)n2)C(C)(C)C1 | 37.5
13 | Cc1c(-c2ccc(O)cc2)n(CCCCCCNCCOC(=O)NCCCc2ccc(N(CCCl)CCCl)cc2)c2ccc(O)cc12 | 9.89
14 | COc1ccc(NC(=S)Nc2cc(C)cc(C)n2)cc1 | > 100
15 | CN1CCc2cc3c(c4c2C1C(O)c1ccccc1-4)OCO3 (configuration not stated) | 35.4

system: HCC-2998 colon; experiment: NCI-60 cell line screen, 48 h

Row | SMILES | TGI [µM]
16 | CC1=NN(c2nc(N)nc(/C(C#N)=C/c3ccccc3O)n2)C(C)(C)C1 | 36.5
17 | Cc1c(-c2ccc(O)cc2)n(CCCCCCNCCOC(=O)NCCCc2ccc(N(CCCl)CCCl)cc2)c2ccc(O)cc12 | 3.52
18 | CN(C)c1ccc(C2CC(c3ccc4ccccc4c3O)=NN2)cc1 (configuration not stated) | > 100
19 | CN1CCc2cc3c(c4c2C1C(O)c1ccccc1-4)OCO3 (configuration not stated) | 22.2
20 | CC(OC(=O)C(Cc1ccccc1)NC(=O)C(Cc1ccccc1)NC(=O)OC(C)(C)C)C(=O)OCc1ccccc1 (stereo not drawn) (Boc-Phe-Phe-[Lac]-OBn; configuration not given here) | > 100

system: HCT-116 colon; experiment: NCI-60 cell line screen, 48 h

Row | SMILES | TGI [µM]
21 | CC1=NN(c2nc(N)nc(/C(C#N)=C/c3ccccc3O)n2)C(C)(C)C1 | 32.2
22 | Cc1c(-c2ccc(O)cc2)n(CCCCCCNCCOC(=O)NCCCc2ccc(N(CCCl)CCCl)cc2)c2ccc(O)cc12 | 2.94
23 | COc1ccc(NC(=S)Nc2cc(C)cc(C)n2)cc1 | > 100
24 | CN(C)c1ccc(C2CC(c3ccc4ccccc4c3O)=NN2)cc1 (configuration not stated) | > 100
25 | CN1CCc2cc3c(c4c2C1C(O)c1ccccc1-4)OCO3 (configuration not stated) | > 100
26 | C1=CC2(C=CC13O[C@H](C1CCCCC1)[C@@H](C1CCCCC1)O3)O[C@H](C1CCCCC1)[C@@H](C1CCCCC1)O2 | > 50
27 | CC(OC(=O)C(Cc1ccccc1)NC(=O)C(Cc1ccccc1)NC(=O)OC(C)(C)C)C(=O)OCc1ccccc1 (stereo not drawn) (Boc-Phe-Phe-[Lac]-OBn; configuration not given here) | > 100

system: HCT-15 colon; experiment: NCI-60 cell line screen, 48 h

Row | SMILES | TGI [µM]
28 | CC1=NN(c2nc(N)nc(/C(C#N)=C/c3ccccc3O)n2)C(C)(C)C1 | 38.6
29 | Cc1c(-c2ccc(O)cc2)n(CCCCCCNCCOC(=O)NCCCc2ccc(N(CCCl)CCCl)cc2)c2ccc(O)cc12 | 3.56
30 | COc1ccc(NC(=S)Nc2cc(C)cc(C)n2)cc1 | > 100
31 | CN(C)c1ccc(C2CC(c3ccc4ccccc4c3O)=NN2)cc1 (configuration not stated) | > 100
32 | CN1CCc2cc3c(c4c2C1C(O)c1ccccc1-4)OCO3 (configuration not stated) | 20.3
33 | C1=CC2(C=CC13O[C@H](C1CCCCC1)[C@@H](C1CCCCC1)O3)O[C@H](C1CCCCC1)[C@@H](C1CCCCC1)O2 | > 50
34 | CC(OC(=O)C(Cc1ccccc1)NC(=O)C(Cc1ccccc1)NC(=O)OC(C)(C)C)C(=O)OCc1ccccc1 (stereo not drawn) (Boc-Phe-Phe-[Lac]-OBn; configuration not given here) | > 100

system: HL-60(TB) leukemia; experiment: NCI-60 cell line screen, 48 h

Row | SMILES | TGI [µM]
35 | CC1=NN(c2nc(N)nc(/C(C#N)=C/c3ccccc3O)n2)C(C)(C)C1 | 65.3
36 | COc1ccc(NC(=S)Nc2cc(C)cc(C)n2)cc1 | > 100
37 | CN1CCc2cc3c(c4c2C1C(O)c1ccccc1-4)OCO3 (configuration not stated) | 5.06
38 | C1=CC2(C=CC13O[C@H](C1CCCCC1)[C@@H](C1CCCCC1)O3)O[C@H](C1CCCCC1)[C@@H](C1CCCCC1)O2 | > 50
39 | CC(OC(=O)C(Cc1ccccc1)NC(=O)C(Cc1ccccc1)NC(=O)OC(C)(C)C)C(=O)OCc1ccccc1 (stereo not drawn) (Boc-Phe-Phe-[Lac]-OBn; configuration not given here) | > 100

system: HOP-62 NSCLC; experiment: NCI-60 cell line screen, 48 h

Row | SMILES | TGI [µM]
40 | CC1=NN(c2nc(N)nc(/C(C#N)=C/c3ccccc3O)n2)C(C)(C)C1 | 38.8
41 | Cc1c(-c2ccc(O)cc2)n(CCCCCCNCCOC(=O)NCCCc2ccc(N(CCCl)CCCl)cc2)c2ccc(O)cc12 | 8.57
42 | COc1ccc(NC(=S)Nc2cc(C)cc(C)n2)cc1 | > 100
43 | CN(C)c1ccc(C2CC(c3ccc4ccccc4c3O)=NN2)cc1 (configuration not stated) | > 100
44 | CN1CCc2cc3c(c4c2C1C(O)c1ccccc1-4)OCO3 (configuration not stated) | 18.6
45 | C1=CC2(C=CC13O[C@H](C1CCCCC1)[C@@H](C1CCCCC1)O3)O[C@H](C1CCCCC1)[C@@H](C1CCCCC1)O2 | > 50
46 | CC(OC(=O)C(Cc1ccccc1)NC(=O)C(Cc1ccccc1)NC(=O)OC(C)(C)C)C(=O)OCc1ccccc1 (stereo not drawn) (Boc-Phe-Phe-[Lac]-OBn; configuration not given here) | > 100

system: HOP-92 NSCLC; experiment: NCI-60 cell line screen, 48 h

Row | SMILES | TGI [µM]
47 | CC1=NN(c2nc(N)nc(/C(C#N)=C/c3ccccc3O)n2)C(C)(C)C1 | 36.7
